{
  "source": "patent US20090054414A1",
  "about": "“Rufinamide for the Treatment of Post-Traumatic Stress Disorder” (SYNOSIA THERAPEUTICS, priority 2007, published 2009)",
  "key": {"[1]": {"test_system": "Male Rj: Wistar (Han) rats", "test": "Vogel Conflict Test in the rat", "type": "in vivo", "settings": "64 mg/kg p.o., 60 minutes before the test; p<0.01", "method": "Rufinamide was dispersed in 0.5% methylcellulose (MC) in distilled water. Vehicle was dispersed in 0.5% MC in distilled water. Clobazam was dispersed in 0.5% MC in distilled water. Methylcellulose (Sigma), batch n° 62K0144, white powder. Distilled water (Laboratoire Aguettant, sterile water for injectable preparation). All substances were stored in a dry, dark, controlled access area and maintained at a controlled ambient temperature (+18° C.). The vehicle suspensions were stored at +4° C.\nThe vehicle, test substance and reference substance were administered in a volume of 5 ml/kg body weight.\nMale Rj: Wistar (Han) rats, 171-205 g body weight range were used. They were supplied by Elevage Janvier, 53940 Le Genest-Saint-Isle, France.\nAnimals were delivered to the laboratory at least 5 days before the experiment, during which time they were acclimatized to the laboratory conditions. They were housed in groups of 5 in macrolon cages (41×25×14 cm) on wood litter (Litalabo—SPPS, 95100 Argenteuil, France) with free access to food (Code 113-SAFE, 91360 Epinay-sur-Orge, France) and water until\nResults in grouped data tables are presented as means followed by a ± sign and the standard error of the mean (s.e.m.) on the basis of 15 animals per group and as percent change from control. The statistical tests used are indicated with the method. All statistical calculations were performed using commercial software (Microsoft Excel®, GB Stat version 6.5), and verified test by test according to Porsolt & Partners Pharmacology's standardized internal procedures. All differences were considered statistically significant when the null hypothesis could be rejected at the risk α=0.05 or less.\nRats were deprived of water for 48 hours and were then placed individually into a transparent Plexiglas enclosure (15×32×34 cm) with a floor consisting of stainless steel bars (0.4 cm) spaced 1 cm apart. The back wall of the enclosure was made of opaque Plexiglass thereby concealing the observer from the experimental animal. In the centre of the opposite wall, 5 cm above the floor, a metal water spout protruded into the cage and was connected to one pole of a shock generator (Apelex: Type 011346). The other pole of the shock generator was connected to the metal grid floor.\nThe rat was left to explore until it found the water spout. Then, every time it drank, it received a slight electric shock (1.7 mA, 1 sec.) 2 seconds after it started lapping. The number of shocks received (punished drinkings) was counted during a 3 minute period.\n15 rats were studied per group. The test was performed blind.\nrufinamide was evaluated at 25, 50, 100 and 200 mg/kg, administered p.o. 60 minutes before the test, and compared with a vehicle control group.\nClobazam (64 mg/kg), administered under the same experimental conditions, was used as reference substance.\nData were analyzed by comparing treated groups with vehicle control using unpaired Student's t tests."}, "[2]": {"settings": "small scale placebo controlled study; cited from earlier work"}, "male OF-1 mice [3]": {"test_system": "male OF-1 mice", "settings": "general statement, no dose given; cited from earlier work"}, "male OF-1 mice [4]": {"test_system": "male OF-1 mice", "test": "half-enclosed platform (HEP) test", "type": "in vivo, mouse", "source_text": "Rufinamide and carbamazepine were compared in the half-enclosed platform (HEP) test. The test determines how drugs affect the exploratory behaviour of a mouse placed upon a novel, half-enclosed platform and gives information as to whether a drug is a stimulant, depressant or disinhibitory as with, for example the benzodiazepines which increase exploration of the platform. It is also useful for determining duration of action and dose-findings studies. The HEP is a further development of the simple elevated platform used by Kaesermann to assess anxiolytic properties of drugs (Ref. Käsermann H. P. (1986) Psychopharmacol. 89:31-37). In this study carbamazepine and rufinamide were tested in the same dose ranges i.e. 0.32/1/3.2 and 10 mg/kg p.o. of each were given to male OF-1 mice 1 hr before testing.\nThe ethogram used consists of 9 elements of exploratory behaviour two of which involve static postures i.e. immobility and stretched attend posture, the latter being an ambivalent element indicative of approach-avoidance conflict. These elements are immediately spontaneous and are not induced by either training or punishment procedures. Upright postures which are posturally demanding are useful to detect muscle relaxation e.g. rearing (FIG. 10)."}, "[5]": {"test_system": "male OF-1 “intruder” mice", "test": "Intruder test (social withdrawal of intruder mice)", "type": "in vivo, mouse", "settings": "1/3/10 mg/kg oral", "method": "Rufinamide, a Na-channel blocker and anti-epileptic agent, and carbamazepine, an anticonvulsant employed to treat bipolar disorder, were given to male OF-1 “intruder” in oral-doses of 1/3/10 mg/kg, 1 hr before the animals were confronted with an individually-housed, aggressive, male OF-1 resident mouse. […] This increase in social investigation (sociotropic effect) was accompanied by a decrease in the frequency and duration of defensive ambivalence probably through competitive inhibition. No signs of motor stimulation were detected.\nThe Intruder test duplicates a territorial encounter between a territory holder (aggressive male) and a subordinate “intruder” mouse. […] In this test the intruders receive the treatment whereas the residents remain untreated. (Dixon, A. K., Huber, C., Lowe, D. J. Clin. Psychiatry. 55 (9) Suppl B, 4-7 (1994)). For purposes of this study, rufinamide and carbamazepine were given orally to intruder mice 1 hr before being introduced singly to aggressive residents using doses of ⅓ and 10 mg/kg.\nOver 60 ethological elements describing the social and non-social behaviour of mice based on the ethogram originally proposed by Grant and Mackintosh (Grant, E. C. Mackintosh, J. H. Behaviour 21: 246-259 (1963) ) and classified according to 9 behavioural categories (Dixon, A. K., Huber, C., Fisch, H. U. Adv. Study. Behaviour. 19: 171-204 (1990)) form the rodent ethogram as used in this test (FIG. 3)."}, "[6]": {"test_system": "male OF-1 “intruder” mice", "settings": "earlier work (Dixon et al. 1994); cited from earlier work"}, "“intruder” rat": {"test_system": "“intruder” rat", "settings": "background statement on anxiolytic compounds; cited from earlier work"}},
  "data": [
    {"smiles": "CN1C(=O)CC(=O)N(c2ccccc2)c2cc(Cl)ccc21", "note": "[Clobazam]", "values": [
      {"measurement": "number of shocks received (punished drinking), change vs vehicle control", "setting": "[1]", "value": "+64%"}
    ]},
    {"smiles": "Nc1nnc(-c2cccc(Cl)c2Cl)c(N)n1", "note": "[Lamotrigine]", "values": [
      {"measurement": "efficacy in treating post-traumatic stress disorder", "setting": "[2]", "value": "some efficacy"}
    ]},
    {"smiles": "CC(N)Cc1ccccc1", "note": "(stereo not shown) [amphetamine]", "values": [
      {"measurement": "behavioural disinhibition in the HEP test", "setting": "male OF-1 mice [3]", "value": "not"}
    ]},
    {"smiles": "NC(=O)N1c2ccccc2C=Cc2ccccc21", "note": "[carbamazepine]", "values": [
      {"measurement": "exploratory activity (Sap,Go) in the open half of the platform", "setting": "male OF-1 mice [4]; 0.32-10 mg/kg p.o., not attaining statistical significance", "value": "general tendency for increased exploratory activity"},
      {"measurement": "overall ethological profile", "setting": "male OF-1 mice [4]; 0.32/1/3.2 and 10 mg/kg p.o., 1 hr before testing", "value": "No major changes in behaviour occurred"},
      {"measurement": "elements of stationary activity", "setting": "male OF-1 mice [4]; at 10 mg/kg p.o.", "value": "significant decrease"},
      {"measurement": "time spent in forward locomotion (Go) in the enclosed half", "setting": "male OF-1 mice [4]; at 3.2 and 10 mg/kg p.o.", "value": "significant shortening"},
      {"measurement": "non-social (NS) behaviour, frequency", "setting": "[5]; 1 hr before 6 minute encounter", "value": "did not change"},
      {"measurement": "social investigation (SI)", "setting": "[5]; 1 hr before 6 minute encounter, frequency and duration", "value": "dose-related increase"},
      {"measurement": "defensive ambivalence", "setting": "[5]; 1 hr before encounter", "value": "reduced but, because of large variation did not attain significance"},
      {"measurement": "overall social contact (SIM): social investigation combined with mating behaviour", "setting": "[5]; 1 hr before encounter", "value": "preserved the clear sociotropic action"},
      {"measurement": "static-flight elements", "setting": "[5]; 1 hr before encounter", "value": "dose-related reduction persisted but also did not attain significance"},
      {"measurement": "total number of ethological elements performed in the 6 minute encounter", "setting": "[5]; 1 hr before encounter", "value": "did not change"},
      {"measurement": "social withdrawal in the Intruder test", "setting": "[6]", "value": "reverses social withdrawal"}
    ]},
    {"smiles": "CN1C(=O)CN=C(c2ccccc2)c2cc(Cl)ccc21", "note": "[diazepam]", "values": [
      {"measurement": "behavioural disinhibition in the HEP test", "setting": "male OF-1 mice [3]", "value": "demonstrable"},
      {"measurement": "intruder's fear and tendency to scrutinize the resident partner", "setting": "“intruder” rat", "value": "reduce the intruder's fear and to increase its tendency to scrutinize the resident partner"}
    ]}
  ]
}
